Results: US20250161319A1, “USE OF HPK1 INHIBITOR IN TREATMENT OF INTERFERON-RELATED DISEASES” (priority 2022, published 2025)

How the values were obtained:
[1] = molecular target: T1, HPK1 (Homo sapiens (Human), UniProt Q92918); assay: Inhibition of HPK1 kinase activity in vitro (ADP-Glo), compounds of Formula I-1; format: biochemical; conditions: MBP substrate
Method: The starting concentration for all tested compounds was 10 μM, and diluted in three-fold concentration gradient for a total of 10 concentration points in duplicate.
Before the experiment, 50 μM DTT and the enzymatic reaction system buffer were prepared.
The compound dilution was transferred into 384-well plate by using a pipette, afterwards, the 384-well plate was sealed and centrifuged at 1000 g for 1 min. 2-fold concentration of HPK1 solution was prepared in the kinase buffer, and then 2.5 μL of the prepared 2-fold concentration of HPK1 solution was added into the 384 wells, centrifuged at 1000 g for 30 s, and incubated for 10 min at room temperature. A mixture of 2-fold concentration of MBP and ATP was prepare in the kinase buffer, and […] of prepared mixture of 2-fold concentration of MBP and ATP was added into the above reaction system for the reaction, centrifuged at 1000 g for 30 s, and then incubated at room temperature for 1 h, 5 μL of ADP-Glo reagent was added into the reaction system, and incubated at room temperature for 40 min. 10 μL of kinase detection reagent was added and incubated at room temperature for 40 min.
In the above formula, cmpd refers to the tested compound, PC refers to the positive control, and VC refers to the negative control.

[2] = molecular target: T2, GCK (Homo sapiens (Human), UniProt Q12851); assay: In vitro enzyme activity, ADP-Glo method (Example 3); format: biochemical; conditions: recombinant protein, read-out: GCK inhibiting activity level (IC50)
T2 sequence (Q12851 whole entry): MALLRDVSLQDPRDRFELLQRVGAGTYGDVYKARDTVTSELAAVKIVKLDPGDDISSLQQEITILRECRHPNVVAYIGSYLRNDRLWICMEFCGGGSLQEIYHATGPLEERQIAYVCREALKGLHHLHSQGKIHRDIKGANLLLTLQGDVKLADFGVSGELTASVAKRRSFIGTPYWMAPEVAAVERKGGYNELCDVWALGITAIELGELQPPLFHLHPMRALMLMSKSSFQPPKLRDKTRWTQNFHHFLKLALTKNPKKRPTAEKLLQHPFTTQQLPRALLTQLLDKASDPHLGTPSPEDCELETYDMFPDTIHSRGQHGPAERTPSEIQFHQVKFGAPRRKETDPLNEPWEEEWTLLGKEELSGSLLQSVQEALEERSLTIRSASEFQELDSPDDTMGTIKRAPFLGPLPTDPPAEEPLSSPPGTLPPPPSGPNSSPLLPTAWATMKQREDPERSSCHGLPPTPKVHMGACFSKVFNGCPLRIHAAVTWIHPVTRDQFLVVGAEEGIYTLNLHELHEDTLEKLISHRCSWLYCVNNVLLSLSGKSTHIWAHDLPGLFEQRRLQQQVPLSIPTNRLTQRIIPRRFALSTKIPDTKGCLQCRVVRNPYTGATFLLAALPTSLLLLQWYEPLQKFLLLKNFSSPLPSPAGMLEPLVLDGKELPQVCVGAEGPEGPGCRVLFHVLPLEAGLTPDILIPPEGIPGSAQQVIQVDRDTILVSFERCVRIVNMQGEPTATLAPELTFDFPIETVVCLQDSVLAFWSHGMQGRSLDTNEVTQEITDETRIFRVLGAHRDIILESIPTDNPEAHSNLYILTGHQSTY
Method: (§1) ADP-Glo™ Kinase Assay is a luminescent ADP assay that provides a versatile, homogeneous, high-throughput screening method to measure kinase activity by quantifying the amount of ADP produced during the kinase reaction. The assay was performed in two steps; first, after the kinase reaction, an equal volume of ADP-Glo™ Reagent was added to quench the kinase reaction and consume the remaining ATP. Second, the Kinase Assay Reagent was added to concurrently convert ADP to ATP and allow measurement of newly synthesized ATP using the luciferase/luciferin reaction. The light produced was measured using a photometer. Luminescence can be correlated with ADP concentration by using an ATP to ADP conversion curve. […] Meanwhile, better selectivity was shown on kinases with closer homology such as GCK/TNIK/PDK1.

[3] = molecular target: T1, HPK1; assay: as above; format: biochemical; conditions: recombinant protein, read-out: HPK1 inhibiting activity level (IC50)
Method: as §1

[4] = molecular target: T3, PDK1 (Homo sapiens (Human), UniProt O15530); assay: as above; format: biochemical; conditions: recombinant protein, read-out: PDK1 inhibiting activity level (IC50)
T3 sequence (O15530 whole entry): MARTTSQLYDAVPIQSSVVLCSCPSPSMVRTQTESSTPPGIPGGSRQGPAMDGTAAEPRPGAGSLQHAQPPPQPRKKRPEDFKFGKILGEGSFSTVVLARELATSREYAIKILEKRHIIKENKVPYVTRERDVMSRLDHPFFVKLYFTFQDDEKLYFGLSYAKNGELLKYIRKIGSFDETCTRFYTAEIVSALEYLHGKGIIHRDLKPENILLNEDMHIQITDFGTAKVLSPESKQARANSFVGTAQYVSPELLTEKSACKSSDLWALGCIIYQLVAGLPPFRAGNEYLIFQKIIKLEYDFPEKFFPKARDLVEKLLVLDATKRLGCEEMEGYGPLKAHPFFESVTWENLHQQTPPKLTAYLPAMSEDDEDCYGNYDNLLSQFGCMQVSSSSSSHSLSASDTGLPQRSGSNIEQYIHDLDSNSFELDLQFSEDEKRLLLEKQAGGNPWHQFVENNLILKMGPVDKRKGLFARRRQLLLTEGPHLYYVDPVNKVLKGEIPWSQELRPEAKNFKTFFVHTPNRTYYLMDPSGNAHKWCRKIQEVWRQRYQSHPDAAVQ
Method: as §1

[5] = molecular target: T4, TNIK (Homo sapiens (Human), UniProt Q9UKE5); assay: as above; format: biochemical; conditions: recombinant protein, read-out: TNIK inhibiting activity level (IC50)
Method: as §1
Target sequence in this assay (Q9UKE5 whole entry, species assumed): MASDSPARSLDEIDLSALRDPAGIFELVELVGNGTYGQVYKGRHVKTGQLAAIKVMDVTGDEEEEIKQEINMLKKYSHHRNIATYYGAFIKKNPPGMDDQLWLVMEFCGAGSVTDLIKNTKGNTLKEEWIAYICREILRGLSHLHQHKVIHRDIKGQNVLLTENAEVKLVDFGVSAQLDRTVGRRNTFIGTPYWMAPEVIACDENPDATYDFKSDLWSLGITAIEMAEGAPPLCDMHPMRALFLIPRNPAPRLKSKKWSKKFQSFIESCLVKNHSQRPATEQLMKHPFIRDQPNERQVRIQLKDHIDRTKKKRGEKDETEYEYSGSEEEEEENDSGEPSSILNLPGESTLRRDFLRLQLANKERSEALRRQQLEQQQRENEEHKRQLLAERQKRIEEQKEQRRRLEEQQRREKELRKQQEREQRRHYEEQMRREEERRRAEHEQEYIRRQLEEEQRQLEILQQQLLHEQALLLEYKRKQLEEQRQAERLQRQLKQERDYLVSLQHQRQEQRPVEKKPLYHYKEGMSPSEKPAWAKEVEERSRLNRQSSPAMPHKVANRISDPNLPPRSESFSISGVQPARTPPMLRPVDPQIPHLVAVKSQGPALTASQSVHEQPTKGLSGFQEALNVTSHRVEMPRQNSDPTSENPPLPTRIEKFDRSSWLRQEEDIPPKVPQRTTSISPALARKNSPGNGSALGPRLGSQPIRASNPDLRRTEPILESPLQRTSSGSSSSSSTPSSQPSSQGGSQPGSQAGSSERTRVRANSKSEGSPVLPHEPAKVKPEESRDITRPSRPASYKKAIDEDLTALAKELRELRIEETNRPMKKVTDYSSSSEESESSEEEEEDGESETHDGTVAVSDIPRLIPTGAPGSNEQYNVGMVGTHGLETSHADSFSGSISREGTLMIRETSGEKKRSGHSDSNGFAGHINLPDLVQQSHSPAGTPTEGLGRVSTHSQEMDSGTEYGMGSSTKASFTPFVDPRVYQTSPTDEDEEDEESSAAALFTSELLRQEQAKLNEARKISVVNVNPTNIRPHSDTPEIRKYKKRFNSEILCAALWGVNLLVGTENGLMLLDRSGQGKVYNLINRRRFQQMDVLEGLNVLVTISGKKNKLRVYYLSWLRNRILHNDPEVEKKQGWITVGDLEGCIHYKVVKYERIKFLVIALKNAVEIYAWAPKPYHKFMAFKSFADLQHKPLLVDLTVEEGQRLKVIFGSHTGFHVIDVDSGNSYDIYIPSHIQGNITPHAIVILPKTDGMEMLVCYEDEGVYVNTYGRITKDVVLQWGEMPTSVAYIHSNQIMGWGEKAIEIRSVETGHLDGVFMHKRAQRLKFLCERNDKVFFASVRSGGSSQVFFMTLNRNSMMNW

[6] = molecular target: T1, HPK1; assay: Inhibition of HPK1 kinase activity in vitro (ADP-Glo), compounds of Formula I-2; format: biochemical; conditions: ADP-Glo; read-out: Activity/IC50, nM HPK1
Method: The starting concentration for all tested compounds was 10 μM, and diluted in three-fold concentration gradient for a total of 10 concentration points in duplicate. Before the experiment, 50 μM DTT and the enzymatic reaction system buffer were prepared. […] A mixture of 2-fold concentration of MBP and ATP was prepare in the kinase buffer, and 2.5 μL of prepared mixture of 2-fold concentration of MBP and ATP was added into the above reaction system for the reaction, centrifuged at 1000 g for 30 s, and then incubated at room temperature for 1 h. 5 μL of ADP-Glo reagent was added into the reaction system, and incubated at room temperature for 40 min. 10 μL of kinase detection reagent was added and incubated at room temperature for 40 min. […] In the above formula, empd refers to the tested compound, PC refers to the positive control, and VC refers to the negative control.

[7] = molecular target: T2, GCK; assay: Inhibition of GCK kinase activity in vitro (ADP-Glo); format: biochemical; conditions: ADP-Glo; read-out: Activity/IC50, nM GCK
Method: (§2) The starting concentration for all tested compounds was 10 μM, and diluted in three-fold concentration gradient for a total of 10 concentration points in duplicate. […] A mixture of 2-fold concentration of MBP and ATP was prepare in the kinase buffer, and 2.5 μL of prepared mixture of 2-fold concentration of MBP and ATP was added into the above reaction system for the reaction, centrifuged at 1000 g for 30 s, and then incubated at room temperature for 1 h. 5 μL of ADP-Glo reagent was added into the reaction system, and incubated at room temperature for 40 min. 10 μL of kinase detection reagent was added and incubated at room temperature for 40 min.

[8] = molecular target: T4, TNIK; assay: Inhibition of TNIK kinase activity in vitro (ADP-Glo); format: biochemical; conditions: ADP-Glo; read-out: Activity/IC50, nM TNIK
Method: as §2
Target sequence in this assay (Q9UKE5 whole entry): as the sequence (Q9UKE5 whole entry, species assumed) above

[9] = molecular target: T3, PDK1; assay: Inhibition of PDK1 kinase activity in vitro (ADP-Glo); format: biochemical; conditions: ADP-Glo; read-out: Activity/IC50, nM PDK1
Method: as §2

[10] = Oral maximum tolerated dose / oral acute toxicity test in mice; format: in vivo; conditions: for Death, Female mice / Death, Male mice: P.O.; for MTD: mouse, in vivo, po, mice, single dose
Excerpt: The inventors tested representative compounds for oral maximum tolerated dose in mice.

[11] = test system: Feline Infectious Peritonitis; assay: Animal clinical trial in cats with Feline Infectious Peritonitis; format: in vivo; conditions: 20 days; for ALB/GLB, After treatment / Feline serum amyloid A (fSAA, mg/L), After treatment: 1.5 mg/kg twice a day; for body weight (kg), After treatment: injection 1.5 mg/kg twice a day
Excerpt: Therefore, the inventors hypothesized that HPK1 inhibitors might have therapeutic effects on Feline Infectious Peritonitis. To validate this hypothesis, the inventors conducted an animal clinical trial. Three animals were included in the experiment, all of them suffered from Feline Infectious Peritonitis, aged between 5-12 months, one was female and the other two were male (Table 4).

T1 sequence (Q92918 whole entry): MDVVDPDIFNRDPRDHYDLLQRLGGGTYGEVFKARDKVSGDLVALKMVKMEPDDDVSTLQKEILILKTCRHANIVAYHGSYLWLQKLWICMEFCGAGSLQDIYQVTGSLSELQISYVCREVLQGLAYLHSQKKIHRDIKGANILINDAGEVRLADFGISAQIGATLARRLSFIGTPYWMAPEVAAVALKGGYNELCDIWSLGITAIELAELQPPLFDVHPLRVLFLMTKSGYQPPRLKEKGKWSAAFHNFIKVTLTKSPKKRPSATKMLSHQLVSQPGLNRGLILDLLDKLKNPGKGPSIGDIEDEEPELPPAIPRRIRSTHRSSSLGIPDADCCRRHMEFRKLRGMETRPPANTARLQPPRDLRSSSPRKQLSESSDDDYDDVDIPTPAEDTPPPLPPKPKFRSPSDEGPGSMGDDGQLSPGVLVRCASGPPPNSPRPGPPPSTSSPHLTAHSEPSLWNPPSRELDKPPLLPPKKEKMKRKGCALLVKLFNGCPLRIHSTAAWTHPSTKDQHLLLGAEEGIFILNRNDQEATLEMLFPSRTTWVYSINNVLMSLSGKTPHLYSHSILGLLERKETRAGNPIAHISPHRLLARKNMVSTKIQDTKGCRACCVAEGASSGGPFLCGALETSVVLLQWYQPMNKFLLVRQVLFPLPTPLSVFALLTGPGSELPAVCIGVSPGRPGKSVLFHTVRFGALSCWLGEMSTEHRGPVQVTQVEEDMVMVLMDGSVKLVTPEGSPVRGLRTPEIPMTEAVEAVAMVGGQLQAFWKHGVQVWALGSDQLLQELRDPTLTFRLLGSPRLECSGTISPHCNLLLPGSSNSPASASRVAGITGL

Row | Molecule | IC50 [1] | IC50 [2] | IC50 [3] | IC50 [4] | IC50 [5] | also measured
1 | CN1CCN(c2ccc(Nc3ncc4cccc(OC5CCC(O)CC5)c4n3)cc2)CC1 (centres unmarked) [Example 4] | < 50 nM | – | – | – | – | –
2 | CN1CCC(n2cc(Nc3ncc4cccc(O[C@H]5CC[C@@H](N)CC5)c4n3)cn2)CC1 [Compound C2] | – | 10 to 100 nM | ≤ 10 nM | 100 to 1000 nM | 100 to 1000 nM | –
3 | Cn1cccc1-c1cc2cc(NC(=O)[C@@H]3C[C@@H]3F)ncc2c(N)c1F [DD02001A cis, (1S,2S)—N-(8-amino-7-fluoro-6-(1-methyl-1H-pyrrole-2-yl)isoquinolin-3-yl)-2-fluorocyclopropane-1-carboxamide] | – | – | – | – | – | IC50 [6]: < 10 nM; IC50 [7]: > 10 nM; IC50 [8]: > 10 nM; IC50 [9]: > 7000 nM
4 | COCCOc1cccc2cnc(Nc3ccc(N4CCN(C)CC4)cc3)nc12 [Example 5, 8-(2-methoxyethoxy)-N-(4-(4-methylpiperazin-1-yl)phenyl)quinazolin-2-amine] | < 200 nM | – | – | – | – | –
5 | CN1CCC(NC(=O)c2ccc(Nc3ncc4cccc(OC5CCC(O)CC5)c4n3)cc2)CC1 (centres unmarked) [Example 8, 4-((8-((4-hydroxycyclohexyl)oxo)quinazolin-2-yl)amino)-N-(1-methylpiperidin-4-yl)benzamide] | < 50 nM | – | – | – | – | –
6 | 4-((2-((4-((2-(dimethylamino)ethyl)(methyl)amino)phenyl)amino)quinazolin-8-yl)oxo)cyclohexan-1-ol [Example 2] | < 50 nM | – | – | – | – | –
7 | CN1CCN(c2ccc(Nc3ncc4cccc(OC5CCC(O)C5)c4n3)cc2)CC1 (centres unmarked) [Example 6] | < 100 nM | – | – | – | – | –
8 | CN1CCN(c2ccc(Nc3ncc4cccc(O[C@H]5CC[C@H](O)CC5)c4n3)cc2)CC1 [Compound C3] | – | 10 to 100 nM | 10 to 100 nM | > 1000 nM | 10 to 100 nM | Death, Female mice ([10]; 225 mg/kg): 0/5; Death, Male mice ([10]; 225 mg/kg): 0/5; Death, Female mice ([10]; 337.5 mg/kg): 2/5; Death, Male mice ([10]; 337.5 mg/kg): 1/5; Death, Female mice ([10]; 506.3 mg/kg): 2/5; Death, Male mice ([10]; 506.3 mg/kg): 3/5; Death, Female mice ([10]; 759.4 mg/kg): 5/5; Death, Male mice ([10]; 759.4 mg/kg): 3/5; Death, Female mice ([10]; 1139.1 mg/kg): 5/5; Death, Male mice ([10]; 1139.1 mg/kg): 5/5; MTD [10]: 225 mg/kg
9 | CN1CCC(n2cc(Nc3ncc4cccc(O[C@H]5CC[C@@H](N)CC5)c4n3)cn2)CC1 [Example 1, 8-(((1s,4s)-4-aminocyclohexyl)oxo)-N-(1-(1-methylpiperidin-4-yl)-1H-pyrazol-4-yl)quinazolin-2-amine] | < 50 nM | – | – | – | – | –
10 | NS(=O)(=O)c1ccc(Nc2ncc3cccc(OC4CCC(O)C4)c3n2)cc1 (centres unmarked) [Example 9, 4-((8-((3-hydroxycyclopentyl)oxo)quinazolin-2-yl)amino)benzenesulfonamide] | < 300 nM | – | – | – | – | –
11 | CN1CCN(c2ccc(Nc3ncc4cccc(O[C@H]5CC[C@@H](O)CC5)c4n3)cc2)CC1 [Compound C4] | – | 10 to 100 nM | 10 to 100 nM | > 1000 nM | 10 to 100 nM | –
12 | CN1CCC(n2cc(Nc3ncc4cccc(O[C@H]5CC[C@H](N)CC5)c4n3)cn2)CC1 [Compound C1] | – | 10 to 100 nM | ≤ 10 nM | 100 to 1000 nM | 100 to 1000 nM | Death, Female mice ([10]; 225 mg/kg): 0/5; Death, Male mice ([10]; 225 mg/kg): 0/5; Death, Female mice ([10]; 337.5 mg/kg): 0/5; Death, Male mice ([10]; 337.5 mg/kg): 0/5; Death, Female mice ([10]; 506.3 mg/kg): 1/5; Death, Male mice ([10]; 506.3 mg/kg): 2/5; Death, Female mice ([10]; 759.4 mg/kg): 4/5; Death, Male mice ([10]; 759.4 mg/kg): 4/5; Death, Female mice ([10]; 1139.1 mg/kg): 5/5; Death, Male mice ([10]; 1139.1 mg/kg): 5/5; MTD [10]: 338 mg/kg; ALB/GLB, After treatment ([11]; Animal No. 1, before treatment 0.5): 0.7; body weight (kg), After treatment ([11]; Animal No. 1, before treatment 1.5): 2.15 kg; ALB/GLB, After treatment ([11]; Animal No. 2, before treatment 0.35): 0.47; Feline serum amyloid A (fSAA, mg/L), After treatment ([11]; Animal No. 2, before treatment 70.47): 15.14 mg/L; body weight (kg), After treatment ([11]; Animal No. 2, before treatment 2.31): 2.81 kg; ALB/GLB, After treatment ([11]; Animal No. 3, before treatment 0.4): 0.5; Feline serum amyloid A (fSAA, mg/L), After treatment ([11]; Animal No. 3, before treatment 104.88): 17.97 mg/L; body weight (kg), After treatment ([11]; Animal No. 3, before treatment 2.9): 3.2 kg
13 | Cn1cccc1-c1cc2cc(NC(=O)C3C[C@H]3F)ncc2c(N)c1F (some centres unmarked) [Compound C5] | – | ≤ 10 nM | ≤ 10 nM | > 1000 nM | 10 to 100 nM | –
14 | NS(=O)(=O)c1cccc(Nc2ncc3cccc(OC4CCC(O)CC4)c3n2)c1 (centres unmarked) [Example 10, 3-((8-((4-hydroxycyclohexyl)oxo)quinazolin-2-yl)amino)benzenesulfonamide] | > 300 nM | – | – | – | – | –
15 | CN1CCC(n2cc(Nc3ncc4cccc(OC5CCC(O)CC5)c4n3)cn2)CC1 (centres unmarked) [Example 3, 4-((2-((1-(1-methylpiperidin-4-yl)-1H-pyrazol-4-yl)amino)quinazolin-8-yl)oxo)cyclohexan-1-ol] | < 50 nM | – | – | – | – | –
16 | CN1CCN(c2ccc(Nc3ncc4cccc(OC5CCC(O)CC5)c4n3)nc2)CC1 (centres unmarked) [Example 7, 4-((2-((5-(4-methylpiperazin-1-yl)pyridin-2-yl)amino)quinazolin-8-yl)oxo)cyclohexan-1-ol] | < 300 nM | – | – | – | – | –
17 | Cn1cccc1-c1cc2cc(NC(=O)C3C[C@@H]3F)ncc2c(N)c1F (some centres unmarked) [Compound C6] | – | 10 to 100 nM | ≤ 10 nM | > 1000 nM | 10 to 100 nM | –
